How the values were obtained:
Test in all cases: Bliss excess, mean over the matrix (fraction); higher = more synergy
[1] = system: 22RV1 (Prostate Carcinoma)
Outline: (§1)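 Bliss excess equals the observed combination effect minus the expected value EA + EB − EA·EB, where EA and EB are the effects of each agent alone. Combination Emax is the second-highest inhibition within the matrix. Inhibition was scaled from CellTiter-Glo 2.0 luminescence, with 0 set by vehicle wells and 1 by blank wells, after 72 hours of two-drug dosing of cells plated in 1536-well plates.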

AU565 (Breast Carcinoma) = system: AU565 (Breast Carcinoma)
Outline: as §1

[2] = system: CAL-27 (Oral Cavity Carcinoma)
Outline: as §1

[3] = system: CGTH-W-1 (Thyroid Gland Carcinoma)
Outline: as §1

[4] = system: DMS-53 (Small Cell Lung Carcinoma)
Outline: as §1

[5] = system: EPLC-272H (Other Solid Carcinomas)
Outline: as §1

EW-16 (Ewing's Sarcoma) = system: EW-16 (Ewing's Sarcoma)
Outline: as §1

EW-7 (Ewing's Sarcoma) = system: EW-7 (Ewing's Sarcoma)
Outline: as §1

[6] = system: G-402 (Other Solid Carcinomas)
Outline: as §1

[7] = system: HCC1395 (Breast Carcinoma)
Outline: as §1

[8] = system: HCC1428 (Breast Carcinoma)
Outline: as §1

HCC70 (Breast Carcinoma) = system: HCC70 (Breast Carcinoma)
Outline: as §1

[9] = system: HT55 (Colorectal Carcinoma)
Outline: as §1

[10] = system: JIMT-1 (Breast Carcinoma)
Outline: as §1

[11] = system: LU-165 (Small Cell Lung Carcinoma)
Outline: as §1

[12] = system: MDA-MB-436 (Breast Carcinoma)
Outline: as §1

[13] = system: NCI-H2087 (Lung Adenocarcinoma)
Outline: as §1

RH-41 (Rhabdomyosarcoma) = system: RH-41 (Rhabdomyosarcoma)
Outline: as §1

WM1552C (Melanoma) = system: WM1552C (Melanoma)
Outline: as §1

[14] = system: huH-1 (Hepatocellular Carcinoma)
Outline: as §1

SMILES	Bliss excess [1]	Bliss excess (AU565 (Breast Carcinoma))	Bliss excess [2]	Bliss excess [3]	Bliss excess [4]	Bliss excess [5]	Bliss excess (EW-16 (Ewing's Sarcoma))	Bliss excess (EW-7 (Ewing's Sarcoma))	Bliss excess [6]	Bliss excess [7]	Bliss excess [8]	Bliss excess (HCC70 (Breast Carcinoma))	Bliss excess [9]	Bliss excess [10]	Bliss excess [11]	Bliss excess [12]	Bliss excess [13]	Bliss excess (RH-41 (Rhabdomyosarcoma))	Bliss excess (WM1552C (Melanoma))	Bliss excess [14]
CC1(C)CCC(CN2CCN(c3ccc(C(=O)NS(=O)(=O)c4ccc(NCC5CCOCC5)c([N+](=O)[O-])c4)c(Oc4cnc5[nH]ccc5c4)c3)CC2)=C(c2ccc(Cl)cc2)C1 [Venetoclax] + C1CN(CCC1(C(=O)N[C@@H](CCO)C2=CC=C(C=C2)Cl)N)C3=NC=NC4=C3C=CN4 [Capivasertib] (first compound max 1 µM, 7x7, partner max 3 µM)	-0.0475	0.0463	-0.0432	-0.0532	0.0707	-0.0465	-0.0498	-0.0149	-0.12	-0.0806	-0.0377	-0.0437	-0.0183	-0.0836	-0.0268	-0.0513	-0.0553	0.0441	-0.0834	-0.0411
CC1(C)CCC(CN2CCN(c3ccc(C(=O)NS(=O)(=O)c4ccc(NCC5CCOCC5)c([N+](=O)[O-])c4)c(Oc4cnc5[nH]ccc5c4)c3)CC2)=C(c2ccc(Cl)cc2)C1 [Venetoclax] + C=CCn1c(=O)c2cnc(Nc3ccc(N4CCN(C)CC4)cc3)nc2n1-c1cccc(C(C)(C)O)n1 [AZD1775] (first compound max 1 µM, partner max 1 µM)	0.0156	0.0756	-0.0321	-0.0114	0.0804	-0.025	-0.0504	0.0406	-0.0625	0.0202	-0.0386	0.0562	-0.0016	-0.0568	-0.0506	-0.0202	-0.0408	0.0778	0.0354	-0.066
CC1(C)CCC(CN2CCN(c3ccc(C(=O)NS(=O)(=O)c4ccc(NCC5CCOCC5)c([N+](=O)[O-])c4)c(Oc4cnc5[nH]ccc5c4)c3)CC2)=C(c2ccc(Cl)cc2)C1 [Venetoclax] + CCN(CCO)CCCOc1ccc2c(Nc3cc(CC(=O)Nc4cccc(F)c4)[nH]n3)ncnc2c1 [AZD2811] (first compound max 1 µM, 7x7, partner max 1 µM)	-0.001	0.0097	-0.0302	-0.0078	0.069	0.0409	0.0619	-0.0227	-0.0036	-0.01	0.118	-0.0223	0.0034	-0.0232	-0.0665	-0.023	-0.0281	0.0561	-0.0804	-0.0337
CC1(C)CCC(CN2CCN(c3ccc(C(=O)NS(=O)(=O)c4ccc(NCC5CCOCC5)c([N+](=O)[O-])c4)c(Oc4cnc5[nH]ccc5c4)c3)CC2)=C(c2ccc(Cl)cc2)C1 [Venetoclax] + CN(C)CCCOc1ccc(-c2ccc3ncc4c(c3c2)n(C2CCOCC2)c(=O)n4C)cn1 [AZD0156] (first compound max 1 µM, 7x7, partner max 1 µM)	-0.0277	0.0206	0.0065	-0.0286	0.0619	-0.0501	-0.0659	-0.007	-0.0774	-0.0304	0.0145	-0.0057	-0.0443	-0.0819	-0.0309	-0.0319	-0.0389	0.0618	-0.0674	-0.032
CC1(C)CCC(CN2CCN(c3ccc(C(=O)NS(=O)(=O)c4ccc(NCC5CCOCC5)c([N+](=O)[O-])c4)c(Oc4cnc5[nH]ccc5c4)c3)CC2)=C(c2ccc(Cl)cc2)C1 [Venetoclax] + COc1cc(Nc2ncc3c(n2)-c2ccc(Cl)cc2C(c2c(F)cccc2OC)=NC3)ccc1C(=O)O [Alisertib] (first compound max 1 µM, 7x7, partner max 10 µM)	0.003	0.106	-0.0088	-0.0198	0.192	0.0442	0.0541	0.0262	-0.0116	-0.0147	0.0554	0.0437	0.0009	-0.0247	0.027	-0.0299	-0.0241	0.135	-0.0613	-0.02
CC1(C)CCC(CN2CCN(c3ccc(C(=O)NS(=O)(=O)c4ccc(NCC5CCOCC5)c([N+](=O)[O-])c4)c(Oc4cnc5[nH]ccc5c4)c3)CC2)=C(c2ccc(Cl)cc2)C1 [Venetoclax] + C[C@@H]1COCCN1C2=NC(=NC(=C2)C3(CC3)[S@](=N)(=O)C)C4=C5C=CNC5=NC=C4 [AZD6738] (first compound max 1 µM, 7x7, partner max 10 µM)	-0.0368	0.0024	-0.0559	-0.0224	0.119	-0.0233	-0.0607	-0.037	-0.0004	-0.0671	-0.0137	-0.0528	-0.0511	-0.0643	-0.117	-0.0167	-0.0511	0.0355	-0.0603	-0.045
CC1(C)CCC(CN2CCN(c3ccc(C(=O)NS(=O)(=O)c4ccc(NCC5CCOCC5)c([N+](=O)[O-])c4)c(Oc4cnc5[nH]ccc5c4)c3)CC2)=C(c2ccc(Cl)cc2)C1 [Venetoclax] + C[C@@H](Nc1cc(F)cc(F)c1)c1cc(C(=O)N(C)C)cc2c(=O)cc(N3CCOCC3)oc12 [AZD8186] (first compound max 1 µM, 7x7, partner max 3 µM)	-0.0172	-0.0033	-0.0361	-0.0244	-0.0141	0.0111	-0.0278	0.0048	-0.0612	0.0107	-0.0147	0.0376	-0.0193	-0.0411	-0.0042	-0.0092	-0.0442	0.0587	-0.0157	-0.0265
CC1(C)CCC(CN2CCN(c3ccc(C(=O)NS(=O)(=O)c4ccc(NCC5CCOCC5)c([N+](=O)[O-])c4)c(Oc4cnc5[nH]ccc5c4)c3)CC2)=C(c2ccc(Cl)cc2)C1 [Venetoclax] + Cc1cc2ncnn2cc1Nc1ncc2c(n1)n(C1CCOCC1)c(=O)n2C [AZD7648] (first compound max 1 µM, 7x7, partner max 10 µM)	-0.0313	0.0266	0.0079	-0.0771	0.11	-0.0656	-0.0534	-0.0345	-0.0359	-0.0491	-0.006	-0.0423	-0.0069	-0.0248	-0.0259	-0.04	-0.0467	-0.0007	-0.0571	-0.0511
CC1(C)CCC(CN2CCN(c3ccc(C(=O)NS(=O)(=O)c4ccc(NCC5CCOCC5)c([N+](=O)[O-])c4)c(Oc4cnc5[nH]ccc5c4)c3)CC2)=C(c2ccc(Cl)cc2)C1 [Venetoclax] + Cn1cnc2c(F)c(Nc3ccc(Br)cc3Cl)c(C(=O)NOCCO)cc21 [Selumetinib] (first compound max 1 µM, 7x7, partner max 3 µM)	-0.0091	0.0147	-0.0087	-0.0482	0.0543	-0.0184	-0.0561	-0.0058	-0.0298	-0.0171	-0.026	0.0707	-0.0356	-0.0429	-0.0588	-0.0303	-0.0207	0.0237	-0.0062	-0.0539
